The structures appear in SMILES notation. pIC50: −log10 of the molar value.

URAT-1 transporter, sequence (Q96S37 other isoform, or with tags, fused parts or gaps): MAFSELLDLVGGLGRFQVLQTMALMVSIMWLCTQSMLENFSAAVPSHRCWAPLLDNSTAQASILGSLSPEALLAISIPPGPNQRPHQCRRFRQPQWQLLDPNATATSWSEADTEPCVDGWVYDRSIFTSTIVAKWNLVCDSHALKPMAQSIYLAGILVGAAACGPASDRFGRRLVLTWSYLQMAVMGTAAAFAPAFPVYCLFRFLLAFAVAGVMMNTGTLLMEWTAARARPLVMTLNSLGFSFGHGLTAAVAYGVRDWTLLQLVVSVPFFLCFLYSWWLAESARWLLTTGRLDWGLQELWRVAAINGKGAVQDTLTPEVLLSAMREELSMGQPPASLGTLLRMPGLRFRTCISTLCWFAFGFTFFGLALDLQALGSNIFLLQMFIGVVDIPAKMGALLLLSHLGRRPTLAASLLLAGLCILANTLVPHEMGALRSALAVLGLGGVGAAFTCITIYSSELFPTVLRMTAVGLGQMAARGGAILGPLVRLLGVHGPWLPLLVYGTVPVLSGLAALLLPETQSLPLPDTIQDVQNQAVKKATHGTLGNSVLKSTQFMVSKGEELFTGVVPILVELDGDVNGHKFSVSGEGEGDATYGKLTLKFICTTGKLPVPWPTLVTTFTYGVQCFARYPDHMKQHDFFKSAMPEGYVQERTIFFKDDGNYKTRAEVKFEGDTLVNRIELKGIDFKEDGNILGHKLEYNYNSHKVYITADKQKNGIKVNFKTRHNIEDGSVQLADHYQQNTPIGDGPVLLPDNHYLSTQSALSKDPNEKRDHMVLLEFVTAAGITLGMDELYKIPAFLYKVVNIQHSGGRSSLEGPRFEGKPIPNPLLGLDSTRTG

The target of the test is URAT-1 transporter (Homo sapiens (Human), UniProt Q96S37). The test is described as follows: URAT-1 inhibitor activity: [14C]-uric acid uptake in CHO-URAT1(L)GFP#8 (CHO#8) cells, scintillation proximity. The test is classed as cell-based. To be noted: inhibition of [14C]-uric acid (30 nM) uptake into CHO#8 cells; compound 0 to 10 μM; 4 parameter logistic fit. Summed up:
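CHO cells stably expressing human URAT1 long isoform–eGFP fusion, pre-incubated 1 h in chloride-containing buffer pH 7.4, then given 30 nM [14C]-uric acid with compound (0–10 μM, 0.25% DMSO) in chloride-free gluconate buffer pH 7.4. Uptake measured by scintillation proximity on Cytostar plates.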
(In general: Scintillation proximity formats need no separation of bound from free tracer.)
What is called pIC50 is the IC50 on a negative log10 scale, so that one unit is a factor of ten. For the compound `N#Cc1cc(S(=O)(=O)Nc2ccc(F)cn2)ccc1Oc1cc(F)c(F)cc1Cl` [Example 177, 4-(2-chloro-4,5-difluorophenoxy)-3-cyano-N-(5-fluoropyridin-2-yl)benzenesulfonamide], the pIC50 is 6.61. The same measure for `N#Cc1cc(S(=O)(=O)Nc2ccc(F)cn2)ccc1Oc1cccc(Cl)c1F` [Example 24, 4-(3-chloro-2-fluorophenoxy)-3-cyano-N-(5-fluoropyridin-2-yl)benzenesulfonamide]: 6.87; for `N#Cc1cc(S(=O)(=O)Nc2ccc(F)cn2)ccc1Oc1ccccc1Br` [Example 189, 4-(2-bromophenoxy)-3-cyano-N-(5-fluoropyridin-2-yl)benzenesulfonamide]: 6.99; for `N#Cc1ccc(Oc2cc(F)c(S(=O)(=O)Nc3ccc(F)cn3)cc2Cl)cc1F` [compound 215]: below 5.00. The same measure for `COc1cc(Cl)cc(Oc2ccc(S(=O)(=O)Nc3ccc(F)cn3)cc2C#N)c1` [Example 162, 4-(3-chloro-5-methoxyphenoxy)-3-cyano-N-(5-fluoropyridin-2-yl)benzenesulfonamide]: 6.90; for `N#Cc1cc(S(=O)(=O)Nc2ccc(F)cn2)ccc1Oc1cccc(F)c1` [Example 52, 3-cyano-4-(3-fluorophenoxy)-N-(5-fluoropyridin-2-yl)benzenesulfonamide]: 6.59. `CC(C)(C)c1cccc(Oc2ccc(S(=O)(=O)Nc3ccc(F)cn3)cc2C#N)c1` [Example 129, 4-(3-tert-butylphenoxy)-3-cyano-N-(5-fluoropyridin-2-yl)benzenesulfonamide] gave a pIC50 below 5.00.

In turn, `O=S(=O)(Nc1ncc(F)cn1)c1cc(Cl)c(Oc2ccc(F)c(F)c2)cc1F` [compound 212] showed a negative-log IC50 (pIC50) below 5.00.

For the compound `Cc1ccnc(NS(=O)(=O)c2ccc(Oc3cccc(Cl)c3C#N)cc2)c1` [Example 216, 4-(3-chloro-2-cyanophenoxy)-N-(4-methylpyridin-2-yl)benzenesulfonamide], the pIC50 is below 5.00. The same measure for `Cc1ccnc(NS(=O)(=O)c2ccc(Oc3cccc(Cl)c3C#N)cc2)n1` [Example 220, 4-(3-chloro-2-cyanophenoxy)-N-(4-methylpyrimidin-2-yl)benzenesulfonamide]: below 5.00; for `N#Cc1cc(S(=O)(=O)Nc2ccc(F)cn2)ccc1Oc1cc(F)cc(C(F)(F)F)c1` [Example 40, 3-cyano-N-(5-fluoropyridin-2-yl)-4-[3-fluoro-5-(trifluoromethyl)phenoxy]benzenesulfonamide]: 6.01.

Compound `Cc1ccc(F)c(Oc2ccc(S(=O)(=O)Nc3ccc(F)cn3)cc2C#N)c1Cl` [Example 108, 4-(2-chloro-6-fluoro-3-methylphenoxy)-3-cyano-N-(5-fluoropyridin-2-yl)benzenesulfonamide] had a pIC50 of 7.01.

For the compound `N#Cc1cc(S(=O)(=O)Nc2ccc(F)cn2)ccc1Oc1cccc(Cl)c1` [Example 25, 4-(3-chlorophenoxy)-3-cyano-N-(5-fluoropyridin-2-yl)benzenesulfonamide], the pIC50 is 7.07. Compound `N#Cc1cc(S(=O)(=O)Nc2ccc(F)cn2)ccc1Oc1ccc(F)cc1` [Example 183, 3-cyano-4-(4-fluorophenoxy)-N-(5-fluoropyridin-2-yl)benzenesulfonamide] gave a pIC50 of 6.74. The same measure for `Cc1cc(Cl)c(Oc2ccc(S(=O)(=O)Nc3ccc(F)cn3)cc2C#N)cc1C#N` [Example 26, 4-(2-chloro-5-cyano-4-methylphenoxy)-3-cyano-N-(5-fluoropyridin-2-yl)benzenesulfonamide]: 7.24; for `N#Cc1cc(S(=O)(=O)Nc2ccc(F)cn2)ccc1Oc1cccc(OC(F)(F)F)c1` [Example 18, 3-cyano-N-(5-fluoropyridin-2-yl)-4-[3-(trifluoromethoxy)phenoxy]benzenesulfonamide]: below 5.00; for `COc1ncc(Oc2ccc(S(=O)(=O)Nc3ccc(F)cn3)cc2C#N)cc1Cl` [Example 70, 4-[(5-chloro-6-methoxypyridin-3-yl)oxy]-3-cyano-N-(5-fluoropyridin-2-yl)benzenesulfonamide]: 7.60.

In turn, `COc1cccc(Oc2ccc(S(=O)(=O)Nc3ccc(F)cn3)cc2C#N)c1` [Example 208, 3-cyano-N-(5-fluoropyridin-2-yl)-4-(3-methoxyphenoxy)benzenesulfonamide] showed a pIC50 below 5.00. The result for `N#Cc1cc(S(=O)(=O)Nc2ccc(F)cn2)ccc1Oc1cc(F)cc(F)c1Cl` [Example 32, 4-(2-chloro-3,5-difluorophenoxy)-3-cyano-N-(5-fluoropyridin-2-yl)benzenesulfonamide] reads 6.67; that for `COc1c(Oc2ccc(S(=O)(=O)Nc3ccc(F)cn3)cc2C#N)ccc(F)c1C` [Example 173, 3-cyano-4-(4-fluoro-2-methoxy-3-methylphenoxy)-N-(5-fluoropyridin-2-yl)benzenesulfonamide], 6.88.

`COc1ccc(F)c(Oc2ccc(S(=O)(=O)Nc3ccc(F)cn3)cc2C#N)c1` [Example 166, 3-cyano-4-(2-fluoro-5-methoxyphenoxy)-N-(5-fluoropyridin-2-yl)benzenesulfonamide] had a pIC50 of 6.94. Consider `N#Cc1cc(S(=O)(=O)Nc2ccc(F)cn2)ccc1Oc1ccc(C#N)c(C2CC2)c1` [Example 203, 3-cyano-4-(4-cyano-3-cyclopropylphenoxy)-N-(5-fluoropyridin-2-yl)benzenesulfonamide], for which the pIC50 is 7.43.

Turning to `COc1ccccc1Oc1ccc(S(=O)(=O)Nc2ccc(F)cn2)cc1C#N` [Example 142, 3-cyano-N-(5-fluoropyridin-2-yl)-4-(2-methoxyphenoxy)benzenesulfonamide], the pIC50 is 7.12. The result for `N#Cc1cc(S(=O)(=O)Nc2ccc(F)cn2)ccc1Oc1cc(C(F)(F)F)ccc1F` [Example 4, 3-cyano-N-(5-fluoropyridin-2-yl)-4-[2-fluoro-5-(trifluoromethyl)phenoxy]benzenesulfonamide] reads below 5.00; that for `N#Cc1cc(S(=O)(=O)Nc2ccc(F)cn2)ccc1Oc1cc(Cl)c(F)cc1Cl` [Example 107, 3-cyano-4-(2,5-dichloro-4-fluorophenoxy)-N-(5-fluoropyridin-2-yl)benzenesulfonamide], 7.24; that for `Cc1ccc(C(C)C)cc1Oc1ccc(S(=O)(=O)Nc2ccc(F)cn2)cc1C#N` [Example 174, 3-cyano-N-(5-fluoropyridin-2-yl)-4-[2-methyl-5-(propan-2-yl)phenoxy]benzenesulfonamide], below 5.00. `N#Cc1cc(S(=O)(=O)Nc2ccc(F)cn2)ccc1Oc1cccnc1` [Example 194, 3-cyano-N-(5-fluoropyridin-2-yl)-4-(pyridin-3-yloxy)benzenesulfonamide] showed a pIC50 below 5.00. In turn, `CCOc1ccc(Oc2ccc(S(=O)(=O)Nc3ccc(F)cn3)cc2C#N)cc1` [Example 153, 3-cyano-4-(4-ethoxyphenoxy)-N-(5-fluoropyridin-2-yl)benzenesulfonamide] had a pIC50 below 5.00.

With `N#Cc1cc(S(=O)(=O)Nc2ccc(F)cn2)ccc1Oc1cncc(Cl)c1` [Example 202, 4-[(5-chloropyridin-3-yl)oxy]-3-cyano-N-(5-fluoropyridin-2-yl)benzenesulfonamide], the pIC50 is 7.43. The same measure for `COc1c(F)ccc(Oc2ccc(S(=O)(=O)Nc3ccc(F)cn3)cc2C#N)c1Cl` [Example 112, 4-(2-chloro-4-fluoro-3-methoxyphenoxy)-3-cyano-N-(5-fluoropyridin-2-yl)benzenesulfonamide]: 6.75; for `Cc1cc(Oc2ccc(S(=O)(=O)Nc3ccc(F)cn3)cc2C#N)c(C(C)C)cc1Cl` [Example 133, 4-[4-chloro-5-methyl-2-(propan-2-yl)phenoxy]-3-cyano-N-(5-fluoropyridin-2-yl)benzenesulfonamide]: 6.10. The same measure for `N#Cc1ccc(Cl)c(Oc2ccc(S(=O)(=O)Nc3ccc(F)cn3)cc2C#N)c1` [Example 63, 4-(2-chloro-5-cyanophenoxy)-3-cyano-N-(5-fluoropyridin-2-yl)benzenesulfonamide]: 6.49; for `N#Cc1cc(Oc2ccc(S(=O)(=O)Nc3ncccn3)cc2C#N)ccc1F` [compound 209]: below 5.00. The same measure for `Cc1c(F)ccc(Oc2ccc(S(=O)(=O)Nc3ccc(F)cn3)cc2C#N)c1Cl` [Example 147, 4-(2-chloro-4-fluoro-3-methylphenoxy)-3-cyano-N-(5-fluoropyridin-2-yl)benzenesulfonamide]: 6.73; for `N#Cc1c(Cl)cccc1Oc1ccc(S(=O)(=O)Nc2ncccn2)cc1` [Example 222, 4-(3-chloro-2-cyanophenoxy)-N-(pyrimidin-2-yl)benzenesulfonamide]: below 5.00. In the case of `COc1ccc(Oc2ccc(S(=O)(=O)Nc3ccc(F)cn3)cc2C#N)cc1C#N` [Example 66, 3-cyano-4-(3-cyano-4-methoxyphenoxy)-N-(5-fluoropyridin-2-yl)benzenesulfonamide], the pIC50 was 6.87.

In turn, `Cc1cc(Cl)c(Oc2ccc(S(=O)(=O)Nc3ccc(F)cn3)cc2C#N)cc1C` [Example 136, 4-(2-chloro-4,5-dimethylphenoxy)-3-cyano-N-(5-fluoropyridin-2-yl)benzenesulfonamide] gave a pIC50 below 5.00. For the compound `CCc1cccc(Oc2ccc(S(=O)(=O)Nc3ccc(F)cn3)cc2C#N)c1` [Example 2, 3-cyano-4-(3-ethylphenoxy)-N-(5-fluoropyridin-2-yl)benzenesulfonamide], the pIC50 was below 5.00. The result for `Cc1cc(C)cc(Oc2ccc(S(=O)(=O)Nc3ccc(F)cn3)cc2C#N)c1` [Example 150, 3-cyano-4-(3,5-dimethylphenoxy)-N-(5-fluoropyridin-2-yl)benzenesulfonamide] reads 6.48; that for `N#Cc1cc(S(=O)(=O)Nc2ccc(F)cn2)ccc1Oc1ccccc1Cl` [Example 9, 4-(2-chlorophenoxy)-3-cyano-N-(5-fluoropyridin-2-yl)benzenesulfonamide], 6.68.

For the origin of these results see US9067922B2, “Chemical compounds” (Pfizer Limited, priority 2013, dated 2015).
